Article PMC3961306, “Comparison of the Cancer Gene Targeting and Biochemical Selectivities of All Targeted Kinase Inhibitors Approved for Clinical Use” (PLoS ONE, 2014)

How the values were obtained:
Assay in all cases: Kinase profiling in a biochemical assay panel (mobility shift assays and ELISA), %-inhibition at 1 μM; selectivity entropy
[1] = target: panel of more than 300 wild-type and mutant kinases (313 kinase panel) (Homo sapiens, UniProt O94804)
[2] = target: panel of more than 300 wild-type and mutant kinases (313 kinase panel) (Homo sapiens, UniProt P07332); details: kinase FES; compound at 1 μM
[3] = target: panel of more than 300 wild-type and mutant kinases (313 kinase panel) (Homo sapiens, UniProt P29376); details: kinase LTK; compound at 1 μM
[4] = target: panel of more than 300 wild-type and mutant kinases (313 kinase panel) (Homo sapiens, UniProt Q05397); details: kinase FAK; compound at 1 μM
[5] = target: T1, panel of more than 300 wild-type and mutant kinases (313 kinase panel) (Homo sapiens, UniProt Q08881); details: kinase ITK; compound at 1 μM
T1 sequence (Q08881 1-620): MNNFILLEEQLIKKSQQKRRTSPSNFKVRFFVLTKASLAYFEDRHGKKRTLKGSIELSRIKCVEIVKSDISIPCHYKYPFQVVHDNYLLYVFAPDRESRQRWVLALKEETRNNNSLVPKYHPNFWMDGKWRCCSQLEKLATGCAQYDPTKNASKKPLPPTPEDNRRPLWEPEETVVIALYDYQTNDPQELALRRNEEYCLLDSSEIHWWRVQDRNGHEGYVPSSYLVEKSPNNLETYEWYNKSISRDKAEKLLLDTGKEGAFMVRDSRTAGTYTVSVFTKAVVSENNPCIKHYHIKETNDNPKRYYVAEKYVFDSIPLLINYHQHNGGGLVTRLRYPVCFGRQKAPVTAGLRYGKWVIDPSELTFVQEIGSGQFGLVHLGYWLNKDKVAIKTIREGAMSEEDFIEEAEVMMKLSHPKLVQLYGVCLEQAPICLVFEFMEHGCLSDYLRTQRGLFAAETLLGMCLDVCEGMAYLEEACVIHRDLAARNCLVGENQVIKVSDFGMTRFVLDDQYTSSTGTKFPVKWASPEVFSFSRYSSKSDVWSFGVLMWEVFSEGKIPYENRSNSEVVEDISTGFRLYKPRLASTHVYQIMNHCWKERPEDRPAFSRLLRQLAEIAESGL

[6] = target: T2, panel of more than 300 wild-type and mutant kinases (313 kinase panel) (Homo sapiens, UniProt Q12852)
T2 sequence (Q12852 1-859): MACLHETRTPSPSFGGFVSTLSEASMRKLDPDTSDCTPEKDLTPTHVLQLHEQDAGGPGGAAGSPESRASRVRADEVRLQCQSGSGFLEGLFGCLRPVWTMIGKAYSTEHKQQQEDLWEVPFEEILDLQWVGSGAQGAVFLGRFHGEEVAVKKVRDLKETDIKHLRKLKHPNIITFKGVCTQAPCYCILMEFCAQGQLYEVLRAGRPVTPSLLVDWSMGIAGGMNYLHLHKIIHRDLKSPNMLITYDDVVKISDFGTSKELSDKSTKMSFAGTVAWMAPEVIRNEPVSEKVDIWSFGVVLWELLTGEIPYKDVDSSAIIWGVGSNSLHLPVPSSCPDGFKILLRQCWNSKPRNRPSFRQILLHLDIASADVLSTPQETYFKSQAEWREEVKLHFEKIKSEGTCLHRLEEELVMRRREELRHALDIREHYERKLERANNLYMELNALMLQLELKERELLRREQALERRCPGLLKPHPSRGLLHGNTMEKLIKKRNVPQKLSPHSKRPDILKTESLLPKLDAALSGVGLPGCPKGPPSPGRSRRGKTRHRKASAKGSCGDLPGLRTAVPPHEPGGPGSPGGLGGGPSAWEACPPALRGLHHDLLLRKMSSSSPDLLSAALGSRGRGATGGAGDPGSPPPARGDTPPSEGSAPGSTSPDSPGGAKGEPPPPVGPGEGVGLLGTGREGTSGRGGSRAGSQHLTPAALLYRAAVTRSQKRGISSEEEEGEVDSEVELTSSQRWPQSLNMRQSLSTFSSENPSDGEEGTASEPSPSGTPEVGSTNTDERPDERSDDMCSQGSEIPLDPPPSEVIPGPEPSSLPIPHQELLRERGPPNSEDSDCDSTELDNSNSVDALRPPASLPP

[7] = target: panel of more than 300 wild-type and mutant kinases (313 kinase panel) (Homo sapiens, UniProt Q13464)
[8] = target: panel of more than 300 wild-type and mutant kinases (313 kinase panel) (Homo sapiens, UniProt Q13555)
[9] = target: panel of more than 300 wild-type and mutant kinases (313 kinase panel) (Homo sapiens, UniProt Q9NYA1); details: kinase SPHK1; 1 μM

panel of more than 300 wild-type and mutant kinases (313 kinase panel) (Homo sapiens, UniProt O94804), sequence (O94804 whole entry, change not shown): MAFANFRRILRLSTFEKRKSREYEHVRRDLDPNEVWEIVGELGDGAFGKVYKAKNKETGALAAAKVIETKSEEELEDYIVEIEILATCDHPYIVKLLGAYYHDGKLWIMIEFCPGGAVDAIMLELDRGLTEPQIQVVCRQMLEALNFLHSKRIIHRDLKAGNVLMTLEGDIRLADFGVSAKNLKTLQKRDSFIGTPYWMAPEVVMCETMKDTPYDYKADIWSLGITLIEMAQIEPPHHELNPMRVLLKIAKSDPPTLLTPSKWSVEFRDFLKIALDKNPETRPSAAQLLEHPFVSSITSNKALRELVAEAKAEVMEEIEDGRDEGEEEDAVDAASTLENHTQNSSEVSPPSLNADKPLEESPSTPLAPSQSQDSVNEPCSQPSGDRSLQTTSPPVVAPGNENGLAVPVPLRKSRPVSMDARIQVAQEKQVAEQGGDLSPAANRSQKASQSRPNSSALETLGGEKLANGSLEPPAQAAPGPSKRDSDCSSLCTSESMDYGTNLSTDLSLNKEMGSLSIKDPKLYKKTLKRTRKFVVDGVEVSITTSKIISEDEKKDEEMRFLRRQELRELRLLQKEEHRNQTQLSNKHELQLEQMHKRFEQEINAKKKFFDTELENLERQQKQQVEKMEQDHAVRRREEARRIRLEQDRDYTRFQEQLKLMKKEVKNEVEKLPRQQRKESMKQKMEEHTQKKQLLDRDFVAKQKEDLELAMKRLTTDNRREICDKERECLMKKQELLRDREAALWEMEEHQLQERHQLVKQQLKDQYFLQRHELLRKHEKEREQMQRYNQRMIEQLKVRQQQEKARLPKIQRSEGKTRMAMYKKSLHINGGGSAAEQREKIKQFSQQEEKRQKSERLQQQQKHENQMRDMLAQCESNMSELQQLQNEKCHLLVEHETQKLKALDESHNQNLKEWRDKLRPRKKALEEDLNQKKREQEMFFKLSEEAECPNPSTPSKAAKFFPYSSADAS

Structure (SMILES)	%-inhibition of LOK ([1]; kinase LOK, compound at 1 μM) [%]	%-inhibition of FES [2] [%]	%-inhibition of LTK [3] [%]	%-inhibition of FAK [4] [%]	%-inhibition of ITK [5] [%]	%-inhibition of DLK ([6]; kinase DLK, compound at 1 μM) [%]	%-inhibition of ROCK1 ([7]; kinase ROCK1, 1 μM) [%]	%-inhibition, CaMK2γ ([8]; 1 µM) [%]	%-inhibition of SPHK1 [9] [%]	%-inhibition of LOK ([1]; 1 µM) [%]	%-inhibition of DLK ([6]; 1 µM) [%]	%-inhibition of ROCK1 ([7]; 1 µM) [%]	%-inhibition, CaMK2γ ([8]; kinase CaMK2γ, 1 μM compound) [%]
CS(=O)(=O)CCNCc1ccc(-c2ccc3ncnc(Nc4ccc(OCc5cccc(F)c5)c(Cl)c4)c3c2)o1 [lapatinib]	17	5	4.66	10	-1.89	-3.44	-2.62	1.73	-11	–	–	–	–
Cc1cn(-c2cc(NC(=O)c3ccc(C)c(Nc4nccc(-c5cccnc5)n4)c3)cc(C(F)(F)F)c2)cn1 [nilotinib]	–	-19	7.51	3.25	-0.451	–	–	–	11	-18	1.43	-17	-2.76
CC(=O)Nc1cccc(-n2c(=O)n(C3CC3)c(=O)c3c(Nc4ccc(I)cc4F)n(C)c(=O)c(C)c32)c1 [trametinib]	12	-1.55	-7	-2.41	-7.56	-2.85	3.21	–	-11	–	–	–	7
